Measured values taken from patent US9944603B2, “Compounds and methods for the treatment of cystic fibrosis” (Flatley Discovery Lab, LLC, priority 2013, dated 2018).

Biological target: T1, human F508del CFTR (Homo sapiens, UniProt P13569, DEL508-508)
T1 construct: expressed in transfected cells
Experiment: CFTR-YFP Assay, CFTR Corrector Protocol (YFP flux assay)
Assay type: cell-based
Details: for Emax: normalized to the positive control, read-out: EMAX (% Efficacy, EMAX normalized to the positive control)

T1 sequence (P13569 with tags, fused parts or gaps DEL508-508): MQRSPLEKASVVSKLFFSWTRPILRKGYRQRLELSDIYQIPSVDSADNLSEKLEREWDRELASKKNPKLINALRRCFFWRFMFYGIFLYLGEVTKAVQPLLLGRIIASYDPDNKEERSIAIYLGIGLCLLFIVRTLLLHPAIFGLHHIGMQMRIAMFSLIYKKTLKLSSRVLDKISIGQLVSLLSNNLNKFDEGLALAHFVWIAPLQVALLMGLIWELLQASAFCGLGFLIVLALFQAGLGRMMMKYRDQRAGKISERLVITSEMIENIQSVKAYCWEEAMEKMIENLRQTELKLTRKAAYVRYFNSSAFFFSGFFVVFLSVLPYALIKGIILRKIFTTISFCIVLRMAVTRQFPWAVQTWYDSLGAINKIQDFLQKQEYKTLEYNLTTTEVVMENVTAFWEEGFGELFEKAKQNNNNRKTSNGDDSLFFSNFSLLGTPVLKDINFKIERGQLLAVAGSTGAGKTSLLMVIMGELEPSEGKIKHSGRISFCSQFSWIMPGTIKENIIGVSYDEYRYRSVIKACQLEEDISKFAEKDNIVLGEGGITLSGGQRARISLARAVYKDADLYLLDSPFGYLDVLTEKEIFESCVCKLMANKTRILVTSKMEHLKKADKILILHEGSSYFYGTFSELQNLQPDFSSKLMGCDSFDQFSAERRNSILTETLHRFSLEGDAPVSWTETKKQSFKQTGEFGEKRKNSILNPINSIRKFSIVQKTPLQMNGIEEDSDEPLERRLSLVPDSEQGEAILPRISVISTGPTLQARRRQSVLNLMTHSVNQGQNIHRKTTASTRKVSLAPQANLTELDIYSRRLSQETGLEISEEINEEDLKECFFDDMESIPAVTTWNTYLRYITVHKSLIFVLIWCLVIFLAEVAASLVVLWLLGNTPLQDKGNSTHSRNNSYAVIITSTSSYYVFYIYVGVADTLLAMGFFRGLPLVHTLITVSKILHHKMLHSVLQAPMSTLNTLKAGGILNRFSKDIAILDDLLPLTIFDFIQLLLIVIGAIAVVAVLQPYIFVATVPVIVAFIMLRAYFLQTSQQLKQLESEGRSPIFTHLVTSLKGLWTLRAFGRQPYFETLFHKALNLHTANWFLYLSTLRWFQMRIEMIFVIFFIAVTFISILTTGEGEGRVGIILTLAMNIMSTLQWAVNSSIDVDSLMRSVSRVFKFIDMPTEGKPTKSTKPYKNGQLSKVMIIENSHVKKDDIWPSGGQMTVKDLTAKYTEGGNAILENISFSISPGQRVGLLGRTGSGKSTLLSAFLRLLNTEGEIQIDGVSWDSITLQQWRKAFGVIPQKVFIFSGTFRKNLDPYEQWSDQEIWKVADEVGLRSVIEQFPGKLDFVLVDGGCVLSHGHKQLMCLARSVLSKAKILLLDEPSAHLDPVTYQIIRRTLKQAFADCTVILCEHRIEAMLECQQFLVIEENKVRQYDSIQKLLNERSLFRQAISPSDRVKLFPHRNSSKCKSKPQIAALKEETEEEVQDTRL

## Cc1cc2cc(S(=O)(=O)N3CCC(n4c(-c5ccc(F)cc5F)nc5cccnc54)CC3)ccc2[nH]1 [Example 143]
  EC50: < 10 µM
  Emax: 10 to 30%

## O=S(=O)(c1ccc2snc(Cl)c2c1)N1CCC(n2c(-c3ccncc3F)nc3cccnc32)CC1 [Example 158]
  EC50: 10 to 20 µM
  Emax: 10 to 30%

## O=S(=O)(c1ccc2c(c1)OCO2)N1CCC(n2c(-c3ccc(F)nc3F)nc3cccnc32)CC1 [Example 105]
  EC50: < 10 µM
  Emax: 30 to 80%

## COc1ccc(S(=O)(=O)N2CCC(n3c(-c4ncccc4Cl)nc4cccnc43)CC2)cc1Cl [Example 90]
  EC50: 10 to 20 µM
  Emax: 30 to 80%

## O=S(=O)(c1ccc2c(c1)OC(F)(F)O2)N1CCC(n2c(-c3cccnc3F)nc3cccnc32)CC1 [Example 119]
  EC50: < 10 µM
  Emax: > 80%

## O=S(=O)(c1ccc2c(c1)OC(F)(F)O2)N1CCC(n2c(-c3ccccc3)nc3cccnc32)CC1 [Example 48]
  EC50: < 10 µM
  Emax: 30 to 80%

## COc1ccc(S(=O)(=O)N2CCC(n3c(-c4ccncc4Cl)nc4cccnc43)CC2)cc1Cl [Example 89]
  EC50: 10 to 20 µM
  Emax: > 80%

## CCc1ccc(S(=O)(=O)N2CCC(n3c(-c4ccncc4Cl)nc4cc(OC)ccc43)CC2)cc1 [Example 156]
  EC50: < 10 µM
  Emax: 30 to 80%

## CCc1ccc(S(=O)(=O)N2CCC(n3c(-c4ccc(F)cc4F)nc4cccnc43)CC2)cc1 [Example 47]
  EC50: < 10 µM
  Emax: 30 to 80%

## CCc1ccc(S(=O)(=O)N2CCC(N(c3cccc(C)n3)S(=O)(=O)c3c(C)cc(C)cc3C)CC2)cc1 [Example 192]
  EC50: < 10 µM
  Emax: 30 to 80%

## CCc1ccc(S(=O)(=O)N2CCC(N(C(=O)Nc3ccccc3)c3cccc(C)n3)CC2)cc1 [Example 179]
  EC50: < 10 µM
  Emax: 10 to 30%

## Cc1ccc2nc(-c3ncccc3Cl)n(C3CCN(S(=O)(=O)c4ccc5c(c4)OC(F)(F)O5)CC3)c2n1 [Example 54]
  EC50: < 10 µM
  Emax: 30 to 80%

## N#Cc1ccc(S(=O)(=O)N2CCC(n3c(-c4ccccc4)nc4cccnc43)CC2)cc1Cl [Example 71]
  EC50: < 10 µM
  Emax: 10 to 30%

## O=S(=O)(c1ccc2c(c1)OC(F)(F)O2)N1CCC(n2c(-c3ccc(F)cc3C(F)(F)F)nc3cccnc32)CC1 [Example 125]
  EC50: < 10 µM
  Emax: 30 to 80%

## Cc1ccc2nc(-c3ccncn3)n(C3CCN(S(=O)(=O)c4ccc5c(c4)OC(F)(F)O5)CC3)c2n1 [Example 114]
  EC50: < 10 µM
  Emax: 30 to 80%

## CCc1ccc(S(=O)(=O)N2CCC(n3c(-c4ccncc4Cl)nc4ccc(OC)nc43)CC2)cc1 [Example 42]
  EC50: < 10 µM
  Emax: 30 to 80%

## Cc1ccc2nc(-c3ccccc3)n(C3CCN(S(=O)(=O)c4ccc(C)c(Cl)c4)CC3)c2n1 [Example 63]
  EC50: < 10 µM
  Emax: 30 to 80%

## CCc1ccc(S(=O)(=O)N2CCC(N(C(=O)c3ccccc3Cl)c3ccccn3)CC2)cc1 [Example 196]
  EC50: 10 to 20 µM
  Emax: 30 to 80%

## Cc1cc2cc(S(=O)(=O)N3CCC(n4c(-c5ccncc5F)nc5cccnc54)CC3)ccc2[nH]1 [Example 142]
  EC50: < 10 µM
  Emax: 10 to 30%

## CCc1ccc(S(=O)(=O)N2CCC(N(C(=O)c3ccncc3Cl)c3ccccn3)CC2)cc1 [Example 199]
  EC50: < 10 µM
  Emax: 10 to 30%

## COc1ccc(S(=O)(=O)N2CCC(N(c3cccc(C)n3)S(=O)(=O)c3ccccc3Cl)CC2)cc1Cl [Example 190]
  EC50: < 10 µM
  Emax: 10 to 30%

## Cc1cccc(N(C2CCN(S(=O)(=O)c3ccc4c(c3)OC(F)(F)O4)CC2)S(=O)(=O)c2ccccc2)n1 [Example 188]
  EC50: < 10 µM
  Emax: 10 to 30%

## COc1ccc(S(=O)(=O)N2CCC(n3c(-c4cccnc4Cl)nc4cccnc43)CC2)cc1Cl [Example 88]
  EC50: > 20 µM
  Emax: 30 to 80%

## Cc1ccc2nc(-c3ccc(F)cc3F)n(C3CCN(S(=O)(=O)c4ccc5c(c4)OC(F)(F)O5)CC3)c2n1 [Example 43]
  EC50: < 10 µM
  Emax: 30 to 80%

## [2H]C1([2H])Oc2ccc(S(=O)(=O)N3CCC(n4c(-c5ccncc5Cl)nc5cccnc54)CC3)cc2O1 [Example 44]
  EC50: < 10 µM
  Emax: 30 to 80%

## CCc1ccc(S(=O)(=O)N2CCC(n3c(-c4ccncc4Cl)nc4cccnc43)CC2)cc1 [Example 41]
  EC50: < 10 µM
  Emax: 30 to 80%

## COc1ccc(S(=O)(=O)N2CCC(n3c(-c4ccccc4)nc4ccc(C)nc43)CC2)cc1F [Example 64]
  EC50: < 10 µM
  Emax: 30 to 80%

## CCc1ccc(S(=O)(=O)N2CCC(N(c3cc(Cl)ccn3)S(=O)(=O)c3ccccc3Cl)CC2)cc1 [Example 233]
  EC50: < 10 µM
  Emax: 30 to 80%

## O=S(=O)(c1ccc(OC(F)F)cc1)N1CCC(n2c(-c3ccncc3Cl)nc3cccnc32)CC1 [Example 56]
  EC50: < 10 µM
  Emax: 30 to 80%

## CCc1ccc(S(=O)(=O)N2CCC(n3c(-c4cccnc4Cl)nc4cccnc43)CC2)cc1 [Example 45]
  EC50: < 10 µM
  Emax: 30 to 80%

## O=S(=O)(c1ccc2c(c1)OC(F)(F)O2)N1CCC(n2c(-c3ccccc3OC(F)(F)F)nc3cccnc32)CC1 [Example 124]
  EC50: < 10 µM
  Emax: 30 to 80%

## O=S(=O)(c1ccc2c(c1)OCO2)N1CCC(n2c(-c3cccnc3F)nc3cccnc32)CC1 [Example 123]
  EC50: < 10 µM
  Emax: 10 to 30%

## [2H]C1([2H])Oc2ccc(S(=O)(=O)N3CCC(n4c(-c5ccncc5F)nc5cccnc54)CC3)cc2O1 [Example 136]
  EC50: < 10 µM
  Emax: 10 to 30%

## Cc1cc(C)c(S(=O)(=O)N(c2cccc(C)n2)C2CCN(S(=O)(=O)c3ccc4c(c3)OC(F)(F)O4)CC2)c(C)c1 [Example 194]
  EC50: < 10 µM
  Emax: 30 to 80%

## CCc1ccc(S(=O)(=O)N2CCC(n3c(-c4ncccc4Cl)nc4cccnc43)CC2)cc1 [Example 91]
  EC50: < 10 µM
  Emax: 30 to 80%

## Cc1cccc(N(C(=O)c2ccccc2Cl)C2CCN(S(=O)(=O)c3ccc4c(c3)OCO4)CC2)n1 [Example 202]
  EC50: < 10 µM
  Emax: 10 to 30%

## COc1cccc(S(=O)(=O)N2CCC(n3c(-c4ccccc4)nc4cccnc43)CC2)c1 [Example 68]
  EC50: < 10 µM
  Emax: 10 to 30%

## Cc1ccc2nc(-c3ccccc3)n(C3CCN(S(=O)(=O)c4ccc5c(c4)OC(F)(F)O5)CC3)c2n1 [Example 97]
  EC50: < 10 µM
  Emax: 30 to 80%

## CCc1ccc(N(C(=O)c2ccccc2Cl)C2CCN(S(=O)(=O)c3ccc(CC)cc3)CC2)cc1 [Example 208]
  EC50: 10 to 20 µM
  Emax: 30 to 80%

## O=S(=O)(c1ccc2c(c1)OC(F)(F)O2)N1CCC(n2c(-c3cccnc3Cl)nc3cccnc32)CC1 [Example 102]
  EC50: < 10 µM
  Emax: 30 to 80%

## COc1ccc(S(=O)(=O)N2CCC(N(c3ccccn3)S(=O)(=O)c3c(C)cc(C)cc3C)CC2)cc1Cl [Example 184]
  EC50: < 10 µM
  Emax: 10 to 30%

## O=S(=O)(c1c[nH]cn1)N1CCC(n2c(-c3ccccc3)nc3cccnc32)CC1 [Example 72]
  EC50: < 10 µM
  Emax: 10 to 30%

## Cc1ccc(S(=O)(=O)N2CCC(n3c(-c4ccccc4Cl)nc4cccnc43)CC2)cc1C#N [Example 96]
  EC50: < 10 µM
  Emax: 30 to 80%

## Cc1ccnc2c1nc(-c1ccncc1Cl)n2C1CCN(S(=O)(=O)c2ccc3c(c2)OC(F)(F)O3)CC1 [Example 166]
  EC50: < 10 µM
  Emax: 30 to 80%

## CCc1ccc(S(=O)(=O)N2CCC(N(C(=O)c3ccccc3Cl)c3cccc(C)n3)CC2)cc1 [Example 201]
  EC50: < 10 µM
  Emax: 30 to 80%

## COc1ccc(S(=O)(=O)N2CCC(N(C(=O)c3ccccc3)c3ccccn3)CC2)cc1F [Example 171]
  EC50: < 10 µM
  Emax: 10 to 30%

## CCc1ccc(S(=O)(=O)N2CCC(n3c(-c4ccncc4Cl)nc4cc(O)ccc43)CC2)cc1 [Example 168]
  EC50: < 10 µM
  Emax: 30 to 80%

## COc1ccc(S(=O)(=O)N2CCC(n3c(-c4ccccc4C#N)nc4cccnc43)CC2)cc1Cl [Example 50]
  EC50: < 10 µM
  Emax: 30 to 80%

## CC(C)c1ccc(S(=O)(=O)N2CCC(n3c(-c4ccccc4)nc4cccnc43)CC2)cc1 [Example 69]
  EC50: < 10 µM
  Emax: 10 to 30%

## O=S(=O)(c1ccc2c(c1)OC(F)(F)O2)N1CCC(n2c(-c3ccccc3F)nc3cccnc32)CC1 [Example 130]
  EC50: < 10 µM
  Emax: 30 to 80%

## Cc1ccc(S(=O)(=O)N2CCC(n3c(-c4ccccc4)nc4ccc(C)nc43)CC2)cc1 [Example 61]
  EC50: < 10 µM
  Emax: 30 to 80%

## COc1ccc(S(=O)(=O)N2CCC(n3c(-c4ccc(F)cc4)nc4cccnc43)CC2)cc1Cl [Example 77]
  EC50: < 10 µM
  Emax: 30 to 80%

## COc1ccc(S(=O)(=O)N2CCC(n3c(-c4ccccc4Cl)nc4ccc(C)nc43)CC2)cc1OC [Example 85]
  EC50: > 20 µM
  Emax: 10 to 30%

## CCc1ccc(S(=O)(=O)N2CCC(n3c(-c4ccncc4Cl)nc4c(OC)ccnc43)CC2)cc1 [Example 170]
  EC50: > 20 µM
  Emax: 10 to 30%

## CCc1ccc(S(=O)(=O)N2CCC(N(c3cc(C)ccn3)S(=O)(=O)c3ccccc3Cl)CC2)cc1 [Example 240]
  EC50: < 10 µM
  Emax: 10 to 30%

## Cc1ccc2nc(-c3ccncc3F)n(C3CCN(S(=O)(=O)c4ccc5c(c4)OC(F)(F)O5)CC3)c2n1 [Example 112]
  EC50: < 10 µM
  Emax: > 80%

## COc1ccc(S(=O)(=O)N2CCC(n3c(-c4ccccc4)nc4ccccc43)CC2)cc1Cl [Example 81]
  EC50: < 10 µM
  Emax: 30 to 80%

## COc1ccc(S(=O)(=O)N2CCC(N(C(=O)c3ccccc3Cl)c3cccc(C)n3)CC2)cc1Cl [Example 206]
  EC50: 10 to 20 µM
  Emax: 10 to 30%

## CCc1ccc(S(=O)(=O)N2CCC(N(c3ccc(C(F)(F)F)cn3)S(=O)(=O)c3ccccc3Cl)CC2)cc1 [Example 243]
  EC50: 10 to 20 µM
  Emax: 10 to 30%

## O=S(=O)(c1ccc2c(c1)CCC2)N1CCC(n2c(-c3ccc(F)cc3F)nc3cccnc32)CC1 [Example 122]
  EC50: < 10 µM
  Emax: > 80%

## O=S(=O)(c1ccc2c(c1)OC(F)(F)O2)N1CCC(n2c(-c3ccncc3F)nc3ncccc32)CC1 [Example 116]
  EC50: < 10 µM
  Emax: > 80%

## CCc1ccc(S(=O)(=O)N2CCC(N(c3cc(OC)ccn3)S(=O)(=O)c3ccccc3Cl)CC2)cc1 [Example 244]
  EC50: 10 to 20 µM
  Emax: 30 to 80%
